In patent publication US20220402982A1, “POLYPEPTIDE FRAGMENT D (MP-D) AND USE THEREOF” (SHANGHAI LONGXIN BIOMEDICAL TECHNOLOGY CO., LTD., priority 2021, published 2022) one finds colonic histopathologic score and colon length data, which are given here for two molecules.

Assay [1] has as its system DSS-induced IBD in mice. Description: Colonic histopathological evaluation (HE staining, scoring) in DSS-induced acute IBD mouse model. The assay is classed as in vivo, male C57BL6 mice. To be noted: 50 μg/kg intragastrically, 7 days pre-administration, then daily together with 2.5 wt % DSS; x±SD; model group 7.4±0.6, blank control 0.0±0.0. How it is done: (§1) The administration of a DSS solution with a specified concentration to mice can induce an acute IBD model characterized by diarrhea, hematochezia, ulcer, and granulocyte infiltration. Mice were randomly grouped according to body weights of the mice. 40 healthy male C57BL6 mice were divided into four groups each with 10 mice:
(§2) blank control group: the mice were each intragastrically administered with water every day at a volume of 0.4 mL/20 g;
(§3) model group: the mice were each intragastrically administered with a DSS aqueous solution of a mass fraction of 2.5 wt % consecutively for 7 days, where the DSS aqueous solution was freshly prepared and changed every day; […]
(§4) A mouse colon between an anus end to an ileocecal end was integrally collected, and a length of the colon was measured; and the colon was dissected along a longitudinal axis, feces therein was rinsed off, and then the colon was stored in 4% […] or frozen at −80° C. […]
Experimental data in the above experimental method were expressed as (x±SD), the GraphPad Prism (ver. 8.0, GraphPad Software Inc., San Diego, Calif., USA) was used to plot a chart, the SPSS Program (ver. 25.0, SPSS Inc., Chicago, Ill., USA) was used for statistical test, and one-way ANOVA or independent two-sample t-test were used for significance test when the normality and homogeneity of variances were met. […]

Assay [2] concerns DSS-induced IBD in mice. The assay is described as follows: Colon length in DSS-induced acute IBD mouse model. In kind it is in vivo, male C57BL6 mice. To be noted: 50 μg/kg intragastrically, 7 days pre-administration, then daily together with 2.5 wt % DSS; x±SD; model group 5.3±0.6, blank control 9.4±0.6; in cm (unit assumed). How it is done: as §1, §2, §3
The body weight changes of mice in each group were recorded every day to determine whether the acute IBD mouse model was successfully established.
as §4

“THTVGSYFQVQNGYVGAFSRALGNNEYAMNS (THTVGSYFXVQNGYVGAFSXALGNXEYAMNS; Sequence is synthesized; (9)..(9) Xaa can be Tyr, Val, Gly, Ser, Gln, or absent; (20)..(20) Xaa can be Ser, Gln, Glu, Tyr, Arg, or absent; (25)..(25) Xaa can be Asn, Thr, Ser, Pro, Leu, or absent) [MP-D]” registered a colonic histopathologic score in the assay on DSS-induced IBD in mice [1] of 1.3±0.6. In the assay with DSS-induced IBD in mice [2], this molecule registered a colon length of 8.0±0.9.

B1: THTVGSYFSVQNGYVGAFSQALGNSEYAMNSPLGSLDGRTTMYNLLGVKYLFAREDQLKKQ (peptide, listed as Lactobacillus plantarum)
chain: THTVGSYFSVQNGYVGAFSQALGNSEYAMNSPLGSLDGRTTMYNLLGVKYLFAREDQLKKQ
notes: positive control
In turn, B1 came in with a colonic histopathologic score in the assay on DSS-induced IBD in mice [1] of 2.4±0.8. Also, in the assay on DSS-induced IBD in mice [2], the colon length turned out to be 7.9±0.5.
